Measurements reported in the CheMixHub viscosity set.

Assay: xn = mol fraction of the nth substance listed

Cn1ccnc1 + CCOC(C)=O
viscosity [mPa·s], 101 kPa
Settings	298.15 K	308.15 K	318.15 K
x1 = 0.0518	0.4901	0.4509	0.417
x1 = 0.1042	0.5183	0.4734	0.4355
x1 = 0.2036	0.5796	0.524	0.4789
x1 = 0.3106	0.661	0.5919	0.5383
x1 = 0.4006	0.7306	0.6504	0.587
x1 = 0.4976	0.826	0.7281	0.6494
x1 = 0.6011	0.9571	0.8342	0.7376
x1 = 0.6961	1.09	0.9437	0.8289
x1 = 0.8012	1.266	1.082	0.9423
x1 = 0.9	1.468	1.245	1.074
x1 = 0.9496	1.57	1.331	1.144

C=CC#N + CN(C)C=O
303.15 K, 101.3 kPa
Settings	viscosity [mPa·s]
x1 = 0.099	0.7313
x1 = 0.2027	0.6911
x1 = 0.2977	0.6444
x1 = 0.4005	0.5998
x1 = 0.497	0.5516
x1 = 0.5957	0.5028
x1 = 0.6984	0.4518
x1 = 0.798	0.4041
x1 = 0.895	0.3581

CCCCC(C)O (stereo not drawn) + CN(C)C=O
viscosity [mPa·s], 101 kPa
Settings	x2 = 0.1088	x2 = 0.1532	x2 = 0.2402	x2 = 0.3448	x2 = 0.441	x2 = 0.5601	x2 = 0.6546	x2 = 0.7434	x2 = 0.843	x2 = 0.9374
298.15 K	3.26	3.03	2.7	2.41	2.17	1.87	1.63	1.4	1.17	0.97
303.15 K	2.67	2.49	2.23	1.99	1.79	1.56	1.39	1.23	1.05	0.87
308.15 K	2.19	2.01	1.8	1.61	1.47	1.3	1.18	1.06	0.93	0.8
313.15 K	1.7	1.53	1.36	1.23	1.13	1.03	0.96	0.89	0.81	0.73

O=C1CCCCCO1 + CNC(C)=O
viscosity [mPa·s], 101 kPa
Settings	x2 = 0.0922	x2 = 0.2381	x2 = 0.3459	x2 = 0.4411	x2 = 0.5823	x2 = 0.6289	x2 = 0.6641	x2 = 0.7792	x2 = 0.9465
303.15 K	4.458	3.929	3.6	3.366	3.201	3.187	3.218	3.308	3.629
308.15 K	3.994	3.609	3.358	3.162	2.962	2.921	2.912	2.895	3.062
313.15 K	3.543	3.135	2.944	2.76	2.602	2.552	2.532	2.527	2.773
318.15 K	3.182	2.761	2.616	2.479	2.372	2.33	2.348	2.349	2.453
